Test results as given in PMC10135756 (2023).

Columns and labels:
[1] = system: CSS.1-42 (DNA, aptamer) GACGACGCCCGCATGTTCCATGGATAGTCTTGACTAGTCGTC; experiment: SGI fluorescence; conditions: 100 mM NaCl, 10 mM MgCl2; 20 mM HEPES pH 7.5; 0.1× SGI, 1 μM aptamer
[2] = system: DNA1 (DNA, other) ACGACACGGAGGCTTAGTTTGCTAAATGGTCATGTCGT; experiment: SGI fluorescence; conditions: 500 mM NaCl, 20 mM MgCl2; 50 mM Tris pH 7.6; 0.02× SGI, 200 nM DNA1
[3] = system: CSS.1-42 (DNA, aptamer) GACGACGCCCGCATGTTCCATGGATAGTCTTGACTAGTCGTC; experiment: SGI fluorescence increase, microplate; conditions: 100 mM NaCl, 10 mM MgCl2; 20 mM HEPES pH 7.5; 0.1× SGI, 1 μM aptamer; with and without 0.01% Triton X-100; up to 6 μM
[4] = system: Ade Apt (adenosine aptamer, WT) (DNA, aptamer) ACCTGGGGGAGTATTGCGGAGGAAGGT; experiment: ThT fluorescence; conditions: 50 mM NaCl, 4 mM MgCl2; 10 mM HEPES pH 7.6; 2 μM ThT, 100 nM aptamer
[5] = system: Ade Apt (adenosine aptamer, WT) (DNA, aptamer) ACCTGGGGGAGTATTGCGGAGGAAGGT; experiment: ThT displacement fluorescence, quartz cuvette; conditions: 50 mM NaCl, 4 mM MgCl2, 10 mM HEPES pH 7.6, 20 °C
[6] = system: Ade Apt M2 (DNA, aptamer) ACCTGGGGTAGTATTGCGGAGTAAGGT; experiment: ThT displacement fluorescence, quartz cuvette; conditions: 50 mM NaCl, 4 mM MgCl2; 10 mM HEPES pH 7.6, 20 °C; 2 μM ThT; up to 500 μM

## CCCN(CCCN(C)C)c1cc(C=C2Sc3ccccc3N2C)c2ccccc2[n+]1-c1ccccc1
[1]
  binding: weak
[2]
  binding: yes

## C[C@]12CCC(=O)C=C1CC[C@@H]1[C@@H]2[C@@H](O)C[C@@]2(C)[C@H]1CC[C@]2(O)C(=O)CO
[3]
  binding: yes

## Cc1ccc2c(c1)sc(-c1ccc(N(C)C)cc1)[n+]2C
[4]
  binding: yes

## Nc1nc2c(ncn2[C@@H]2O[C@H](CO)[C@@H](O)[C@H]2O)c(=O)[nH]1
[5]; 2 μM ThT, up to 500 μM
  binding: no

## Nc1ncnc2c1ncn2[C@@H]1O[C@H](CO)[C@@H](O)[C@H]1O
[5]; 2 μM ThT displaced, 100 nM aptamer, 10 min equilibration, apparent
  Kd: 16.6 ± 8.4 µM
[6]
  binding: no
